Assay results as given in US12128029B2, “Treatment of idiopathic pulmonary fibrosis” (VICORE PHARMA AB, priority 2022, dated 2024).

Columns and labels:
patients with IPF = conditions: over the period of a year; cited from earlier work
[1] = Sensitivity of C21 and salts to light and water; format: physicochemical; conditions: C21 and salts thereof
[2] = tested on: model of obstructive lung disease (specifically COPD); conditions: cited from earlier work
subjects with IPF = assay: Phase II, multi-centre, open-label, single-arm trial of the safety, efficacy and pharmacokinetics of C21 in subjects with IPF; conditions: for mean change in FVC from baseline: C21 100 mg b.i.d. orally (sodium salt capsules), observed data, FIG. 1
Procedure: The primary objective of the study is/was to investigate the safety of C21, 200 mg daily dose (100 mg b.i.d.) administered orally to subjects with IPF. The secondary objectives are/were to evaluate the effect on lung function decline of C21 and the pharmacokinetics of C21 at the same daily dose. Exploratory objectives include the investigation of a range of laboratory parameters as potential biomarkers of inflammation and fibrosis.
The primary endpoint of the trial is the nature and frequency of adverse events occurring over the trial period.
Secondary endpoints included changes from baseline in: • FVC (defined as the maximum amount of air that can be forcibly exhaled from the lungs after fully inhaling) at Weeks 12, 24 and 36; • plasma concentration of C21 and derived PK parameters evaluated in a sub-set of subjects.
C21 has been administered twice daily to the subjects for 36 weeks as follows: • morning dose: two 50 mg capsules (100 mg C21 or placebo) to be taken with a glass of water after minimum 2 hours fasting; and • afternoon/evening dose: two 50 mg capsules (100 mg C21 or placebo) to be taken with a glass of water after minimum 2 hours fasting. Subjects are required not to eat anything for 1 hour after taking the study drug.
The patients were enrolled to receive C21 (100 mg b.i.d.) for 36 weeks in total.

[3] = interim analysis, 21 subjects, C21 100 mg b.i.d.

Row | Compound | reduction in the rate of decline in lung function (FVC measurements) (patients with IPF) | sensitivity to the combined presence of light and water [1] | effect on cigarette smoke-induced emphysema [2] | effect on lung functions [2] | mean change in FVC from baseline (subjects with IPF; 24 weeks) | difference in mean FVC change versus expected mean decline in untreated patients (subjects with IPF; 24 weeks, expected decline -120 mL, based on previously published IPF trials) | mean change in FVC from baseline (subjects with IPF; 36 weeks) | difference in mean FVC change versus expected mean decline in untreated patients (subjects with IPF; 36 weeks, expected decline -180 mL) | gastrointestinal signals (subjects with IPF; [3]) | overall safety profile (subjects with IPF; [3]) | related serious adverse events (subjects with IPF; [3]) | deaths in the ongoing trial (subjects with IPF; reported to be due to COVID-19 and not related to C21) | p value of slope (change in FVC scaled to 24 weeks, by visit, observed cases) versus expected mean in untreated patients (subjects with IPF; week 28) | p value of slope (change in FVC scaled to 24 weeks, by visit, observed cases) versus expected mean in untreated patients (subjects with IPF; week 32) | p value of slope (change in FVC scaled to 24 weeks, by visit, observed cases) versus expected mean in untreated patients (subjects with IPF; week 36)
1 | COC(=O)c1ccc2c(c1)NC(=O)/C2=C(\Nc1ccc(N(C)C(=O)CN2CCN(C)CC2)cc1)c1ccccc1 [nintedanib] | approximately 50% | – | – | – | – | – | – | – | – | – | – | – | – | – | –
2 | Cc1ccc(=O)n(-c2ccccc2)c1 [pirfenidone] | approximately 50% | – | – | – | – | – | – | – | – | – | – | – | – | – | –
3 | CCCCOC(=O)NS(=O)(=O)c1sc(CC(C)C)cc1-c1ccc(Cn2ccnc2)cc1 [C21, N-butyloxycarbonyl-3-(4-imidazol-1-ylmethylphenyl)-5-iso-butylthiophene-2-sulfonamide] | – | extreme sensitivity | prevented cigarette smoke-induced emphysema | improved lung functions | +250 mL | +371 mL | +750 mL | +930 mL | no gastrointestinal signals | no safety profile concerns | no related serious adverse events | 1 | 0.012 | 0.032 | 0.016
